Measured values as given in patent US20210204539A1, “Method for Suppressing Freezing Damage and Composition for Preventing Freezing Damage” (Kyoto University, priority 2018, published 2021).

Key:
S1PR = conditions: known; cited from earlier work
the cells = assay: Toxicity to the cells when administered at a time other than the low-temperature preservation; format: cell-based; conditions: e.g. during a normal-temperature preservation
[1] = test system: cell line HepG2 derived from a human liver cancer; assay: Cold damage suppression, HepG2 cultured at 4° C. for 24 hours, viability after rewarming by alamarBlue (Examples 1, 5, 6); format: cell-based; conditions: HepG2, 4° C. 24 hours, compound 0 M to 50 μM, viability one hour after rewarming at 37° C.
Procedure: Then, the culturing at 4° C. in a low temperature incubator was performed for 24 hours. After the culturing at low temperature for 24 hours, rewarming was carried out using a medium at 37° C., and the viability of cells one hour after the rewarming was determined by detecting enzyme activity using alamarBlue™. The compound concentration was varied from 0 M (Vehicle) to 50 μM, so that the concentration dependency of the compound was observed.
Using the compounds 1 and 3 to 7 synthesized by the above-described scheme, the cell line HepG2 derived from a human liver cancer was cultured under the presence of the respective compounds at low temperature, and cold damage suppression effects were assessed.
HepG2 cells were cultured at 37° C. so as to be at a density of 80 to 90%, and thereafter, the medium was replaced with a medium (DMEM) at 4° C. to which any one of the compounds 1 and 3 to 7 had been added preliminarily. Then, the culturing at 4° C. in a low temperature incubator was performed for 24 hours. After the culturing at low temperature for 24 hours, rewarming was carried out by a medium at 37° C., and the viability of cells one hour […] determined by detecting enzyme activity using alamarBlue™. The compound concentration was varied from 0 M (Vehicle) to 50 μM, so that the concentration dependency of the compound was observed. […]

[2] = test system: human umbilical vascular endothelial cell line HUEhT-2; assay: Cold storage time versus viability, HUEhT-2 (Example 2); format: cell-based; conditions: HUEhT-2, 10 μM
Procedure: (§1) Then, the culturing at 4° C. in a low temperature incubator was performed. The cell viability one hour after the rewarming using a medium at 37° C. was determined by detecting enzyme activity with use of alamarBlue™. The relationship between the cold storage time and the viability was observed.

S1PR2 = S1PR2 (Homo sapiens, UniProt O95136); conditions: reported; cited from earlier work
[3] = test system: cells preserved at low temperature; assay: Cold damage suppression at varied timings of contact with the compound (Example 3); format: cell-based
Procedure: Cells were cultured at 37° C. so as to be at a density of 80 to 90%, and thereafter, the medium was replaced with a medium at 4° C. Then, the culturing at 4° C. in a low temperature incubator was performed. […] The cell viability one hour after the rewarming using a medium at 37° C. was determined by detecting enzyme activity with use of alamarBlue™.

Flp-In™ CHO cell line = assay: Cold storage time versus viability, Flp-In CHO (Example 2); format: cell-based
Procedure: as §1

[4] = test system: myocardium in the hearts of transplanted rats; assay: Rat heart 24-hour cold storage and ectopic transplantation, Masson's trichrome staining (Example 4); format: in vivo, LEW rats; conditions: UW solution with 10 μM, 24-hour cold storage at 4° C., one week after transplantation, versus Vehicle group
Procedure: To each of 7 to 8 week-old LEW rats as recipients, laparotomy under general anesthesia was performed to expose the abdominal aorta and the vena cava. Then, the heart in cold storage was taken out of the UW solution, and ectopic transplantation was carried out, by end-to-side anastomosis between the pulmonary artery and the aorta of the donor and the abdominal vena cava and the aorta of the recipient, respectively, followed by laparotomy closure. The heart was removed one week after the transplantation, and the viable area and fibrotic area of myocardium in the heart were compared by using Masson's trichrome staining (N=5 in each group).

S1PR4 = target: T1, S1PR4 (Homo sapiens, UniProt O95977); conditions: reported; cited from earlier work
T1 sequence (O95977 1-384): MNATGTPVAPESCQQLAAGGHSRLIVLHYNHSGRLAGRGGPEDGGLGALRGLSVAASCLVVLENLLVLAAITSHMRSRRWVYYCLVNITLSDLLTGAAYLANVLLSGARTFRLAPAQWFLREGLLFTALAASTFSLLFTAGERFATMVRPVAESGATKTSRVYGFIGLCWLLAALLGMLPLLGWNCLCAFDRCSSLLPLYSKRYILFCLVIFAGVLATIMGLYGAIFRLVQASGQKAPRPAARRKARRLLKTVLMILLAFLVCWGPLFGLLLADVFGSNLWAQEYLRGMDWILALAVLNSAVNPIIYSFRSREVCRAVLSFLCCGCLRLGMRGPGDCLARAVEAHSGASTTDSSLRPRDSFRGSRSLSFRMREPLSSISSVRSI

[5] = test system: cell line HepG2 derived from a human liver cancer; assay: Cold storage time versus viability, HepG2 (Example 2); format: cell-based; conditions: HepG2, 10 μM, 4° C., versus Vehicle
Procedure: as §1

S1PR1 = S1PR1 (Homo sapiens, UniProt P21453); conditions: reported; cited from earlier work
S1PR5 = S1PR5 (Homo sapiens, UniProt Q9H228); conditions: reported; cited from earlier work
Sequence of S1PR5 (Q9H228 whole entry, species assumed): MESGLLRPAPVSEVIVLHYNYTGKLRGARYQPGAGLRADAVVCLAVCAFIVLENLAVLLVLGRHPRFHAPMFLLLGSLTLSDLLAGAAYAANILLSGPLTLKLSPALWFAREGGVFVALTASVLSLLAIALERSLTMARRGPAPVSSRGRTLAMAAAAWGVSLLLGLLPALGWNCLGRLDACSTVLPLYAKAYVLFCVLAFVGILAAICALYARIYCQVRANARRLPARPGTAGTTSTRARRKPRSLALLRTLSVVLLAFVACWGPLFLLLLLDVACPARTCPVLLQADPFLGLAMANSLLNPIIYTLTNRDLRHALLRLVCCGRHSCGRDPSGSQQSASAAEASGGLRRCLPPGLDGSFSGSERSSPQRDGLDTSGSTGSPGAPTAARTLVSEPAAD

Sequence of S1PR1 (P21453 whole entry, species assumed): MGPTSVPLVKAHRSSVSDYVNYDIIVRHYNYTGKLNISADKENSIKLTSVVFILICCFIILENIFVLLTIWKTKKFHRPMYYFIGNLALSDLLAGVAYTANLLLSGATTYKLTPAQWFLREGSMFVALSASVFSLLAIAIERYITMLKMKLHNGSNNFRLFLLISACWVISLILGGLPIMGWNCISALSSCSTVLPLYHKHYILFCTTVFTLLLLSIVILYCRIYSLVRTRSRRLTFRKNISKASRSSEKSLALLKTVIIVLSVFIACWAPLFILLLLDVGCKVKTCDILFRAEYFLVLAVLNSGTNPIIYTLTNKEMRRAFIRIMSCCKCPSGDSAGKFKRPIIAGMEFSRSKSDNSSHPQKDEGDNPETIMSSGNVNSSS
Sequence of S1PR2 (O95136 whole entry, species assumed): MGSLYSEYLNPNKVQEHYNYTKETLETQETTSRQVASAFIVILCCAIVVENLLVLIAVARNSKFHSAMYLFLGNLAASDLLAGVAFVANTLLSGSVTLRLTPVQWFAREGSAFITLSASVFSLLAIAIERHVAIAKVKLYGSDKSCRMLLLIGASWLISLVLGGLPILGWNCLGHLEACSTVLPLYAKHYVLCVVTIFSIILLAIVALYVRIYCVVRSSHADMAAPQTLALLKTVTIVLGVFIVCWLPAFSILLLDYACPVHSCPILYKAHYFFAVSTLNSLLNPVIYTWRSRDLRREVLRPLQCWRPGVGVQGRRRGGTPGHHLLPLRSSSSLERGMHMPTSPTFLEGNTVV

SMILES | S1PR antagonist (S1PR) | toxicity to the cells (the cells) | amelioration of the deterioration of cell viability during the low-temperature preservation (cold damage suppression) [1] | amelioration of the deterioration of cell viability during the low-temperature preservation ([2]; 4° C., versus Vehicle) | viability at 10 µM ([2]; Homo sapiens, Endothelial cell, 360 h, low-temperature preservation period 15 days) [%] | inhibiting activity to S1PR2 (S1PR2) | cold damage (deterioration of viability) suppression ([3]; 10 μM added simultaneously with the start of the low-temperature preservation) | cold damage (deterioration of viability) suppression ([3]; 10 μM added to the medium before the start of the low-temperature preservation) | cold damage (deterioration of viability) suppression ([3]; 10 μM added when the temperature was turned to 37° C. after the low-temperature preservation (Rewarm treat)) | amelioration of the deterioration of cell viability during the low-temperature preservation (Flp-In™ CHO cell line; 10 μM, 4° C., versus Vehicle) | viability at 10 µM (Flp-In™ CHO cell line; Cricetulus griseus, 360 h, low-temperature preservation period 15 days) [%] | fibrotic area of myocardium [4] | viable area of myocardium [4] | inhibiting activity to S1PR4 (S1PR4) | amelioration of the deterioration of cell viability during the low-temperature preservation [5] | inhibiting activity to S1PR1 (S1PR1) | inhibiting activity to S1PR5 (S1PR5)
Cc1nn(C)c2nc(NNC(=O)Nc3cc(Cl)nc(Cl)c3)cc(C(C)C)c12 [Compound 2, N-(2,6-dichloro-4-pyridinyl)-2-[1,3-dimethyl-4-(1-methylethyl)-1H-pyrazolo[3,4-b]pyridin-6-yl]-hydrazinecarboxamide] | S1PR antagonists | did not exhibit toxicity | concentration-dependent amelioration |  |  |  |  |  |  |  |  |  |  |  |  |  | 
CC(C)(C)C(=O)/C(=N/c1ccc(Cl)cc1)NNc1ccc(Cl)cc1 [Compound 1, N-(4-chlorophenyl)-N′-(4-chlorophenylamino)-3,3-dimethyl-2-oxobutanamidine] | S1PR antagonists | did not exhibit toxicity | concentration-dependent amelioration | amelioration of the deterioration of cell viability | > 50 | has an inhibiting activity | could be suppressed | could be suppressed | not sufficiently suppressed | amelioration of the deterioration of cell viability | > 50 | less fibrotic one | more viable myocardium | has an inhibiting activity | amelioration of the deterioration of cell viability | has an inhibiting activity | has an inhibiting activity
